Experiments:
Acetylcholinesterase = Acetylcholinesterase (Homo sapiens, UniProt P22303); test: Inhibition of AChE (unknown origin)
[1] = target: T1, Diacylglycerol O-acyltransferase 1 (Homo sapiens, UniProt O75907); test: Inhibition of DGAT1 (unknown origin)
T1 sequence (O75907 whole entry): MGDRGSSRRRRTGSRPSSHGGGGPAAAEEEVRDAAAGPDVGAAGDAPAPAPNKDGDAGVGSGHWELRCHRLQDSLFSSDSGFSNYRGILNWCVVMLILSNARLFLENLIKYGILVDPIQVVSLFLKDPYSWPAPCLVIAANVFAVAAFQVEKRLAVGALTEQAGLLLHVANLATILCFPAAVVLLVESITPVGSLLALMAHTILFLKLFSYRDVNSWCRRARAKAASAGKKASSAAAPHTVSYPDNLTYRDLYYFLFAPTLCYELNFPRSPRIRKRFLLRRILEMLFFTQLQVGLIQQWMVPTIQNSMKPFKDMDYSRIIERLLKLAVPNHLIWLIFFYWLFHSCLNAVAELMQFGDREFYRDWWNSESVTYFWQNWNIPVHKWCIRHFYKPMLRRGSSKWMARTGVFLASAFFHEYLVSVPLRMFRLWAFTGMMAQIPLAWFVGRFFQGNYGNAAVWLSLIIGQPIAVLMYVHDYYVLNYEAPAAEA

[2] = target: T2, Tyrosine-protein phosphatase non-receptor type 1 (Homo sapiens, UniProt P18031); test: Inhibition of PTP1B (unknown origin)
T2 sequence (P18031 whole entry): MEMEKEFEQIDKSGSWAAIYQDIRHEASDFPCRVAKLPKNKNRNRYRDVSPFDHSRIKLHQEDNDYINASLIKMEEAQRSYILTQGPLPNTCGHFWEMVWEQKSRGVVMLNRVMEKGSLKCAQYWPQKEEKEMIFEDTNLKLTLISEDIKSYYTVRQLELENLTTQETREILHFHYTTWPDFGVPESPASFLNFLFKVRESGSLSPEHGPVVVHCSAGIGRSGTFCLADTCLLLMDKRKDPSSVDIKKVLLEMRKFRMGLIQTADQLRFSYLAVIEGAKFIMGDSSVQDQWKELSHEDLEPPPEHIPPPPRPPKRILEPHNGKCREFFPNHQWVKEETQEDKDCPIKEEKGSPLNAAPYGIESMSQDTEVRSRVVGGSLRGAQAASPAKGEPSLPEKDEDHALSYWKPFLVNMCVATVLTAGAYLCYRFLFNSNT

Acetylcholinesterase, sequence (P22303 whole entry): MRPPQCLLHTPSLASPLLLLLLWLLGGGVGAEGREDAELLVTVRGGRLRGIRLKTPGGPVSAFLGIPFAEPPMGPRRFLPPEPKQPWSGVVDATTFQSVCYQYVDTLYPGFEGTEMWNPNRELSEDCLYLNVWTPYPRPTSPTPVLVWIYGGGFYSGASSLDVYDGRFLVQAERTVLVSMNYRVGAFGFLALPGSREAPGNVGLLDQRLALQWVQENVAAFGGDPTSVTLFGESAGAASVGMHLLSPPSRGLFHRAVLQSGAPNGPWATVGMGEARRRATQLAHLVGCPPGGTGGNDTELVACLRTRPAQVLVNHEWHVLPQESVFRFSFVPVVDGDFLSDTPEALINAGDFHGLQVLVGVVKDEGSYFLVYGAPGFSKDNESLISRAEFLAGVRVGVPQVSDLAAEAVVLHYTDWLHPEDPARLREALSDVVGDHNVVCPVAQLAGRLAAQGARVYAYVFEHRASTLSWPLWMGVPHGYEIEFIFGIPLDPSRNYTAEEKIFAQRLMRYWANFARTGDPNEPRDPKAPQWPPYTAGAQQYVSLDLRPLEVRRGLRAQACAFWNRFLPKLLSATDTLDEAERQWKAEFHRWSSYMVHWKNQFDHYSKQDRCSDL

IC50 [1] | IC50 [2] | SMILES | IC50 (Acetylcholinesterase)
 |  | COc1ccc2c(c1)O/C(=C\c1ccc(OCCN3CCCCC3)c(Cl)c1)C2=O | 160 nM
 |  | COc1cc(/C=C2\Oc3cc(OCCN4CCCCC4)ccc3C2=O)cc(OC)c1OC | 422 nM
 |  | O=C1/C(=C/c2ccc(OCCN3CCCC3)cc2)Oc2ccccc21 | 545 nM
 |  | O=C1/C(=C/c2ccc(OCCN3CCCCC3)cc2)Oc2ccccc21 | 348 nM
35200 nM | 11300 nM | CC(C)=CCc1c(O)ccc2c1O/C(=C\c1ccc(O)cc1)C2=O | 
 |  | CCOc1ccc2c(c1)O/C(=C\c1ccc(OCCN3CCCCC3)cc1)C2=O | 45 nM
 |  | COc1ccc(/C=C2\Oc3cc(OCCN4CCCCC4)ccc3C2=O)cc1 | 845 nM
 |  | COc1cc(/C=C2\Oc3cc(OCCN4CCCC4)ccc3C2=O)cc(OC)c1OC | 643 nM

— BindingDB's records for doi:10.1021/jm3015052
